One assay addresses T1, M1 muscarinic receptor (Homo sapiens, UniProt P11229).
T1 construct: expressed in transfected cells; host or cells: CHO cells (M1-CHO, under zeocin and G418 selection)
T1 sequence (P11229 1-460): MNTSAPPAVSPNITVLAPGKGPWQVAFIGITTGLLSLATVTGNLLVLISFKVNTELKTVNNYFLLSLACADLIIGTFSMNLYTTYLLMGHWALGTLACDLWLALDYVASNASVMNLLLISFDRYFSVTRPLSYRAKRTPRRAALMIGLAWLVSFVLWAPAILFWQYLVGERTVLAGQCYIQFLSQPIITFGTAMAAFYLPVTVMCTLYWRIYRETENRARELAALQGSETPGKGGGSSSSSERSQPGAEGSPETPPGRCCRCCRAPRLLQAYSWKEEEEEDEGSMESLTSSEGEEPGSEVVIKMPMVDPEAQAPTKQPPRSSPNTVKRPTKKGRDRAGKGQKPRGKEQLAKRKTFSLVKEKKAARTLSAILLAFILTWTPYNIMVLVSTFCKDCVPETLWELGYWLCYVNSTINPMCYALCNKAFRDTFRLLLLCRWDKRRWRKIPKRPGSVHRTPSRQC
Kind of assay: Functional mobilization of intracellular calcium (FLIPR, Fluo-3), M1-CHO cells. As to conditions: compound nos. 1-454; for Emax: 100% efficacy is the maximum response obtained with the Carbachol control, read-out: M1 Efficacy; for M1 Activity: M1-CHO cells, calcium mobilization. Type of assay: cell-based. In outline:
(§1)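 Fluo-3 read-out, ex 488/em 540 nm, 60 sec on FLIPR 3. For agonist mode, compound added directly; for inhibition, 15 min compound pre-incubation before carbachol at EC80 (added as a 3× solution), or co-application. Buffer pH 7.4 with 1 mM probenecid; DMSO 0.5%.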
A general note: Calcium assays in cells follow changes in intracellular calcium, usually with a dye or a luminescent sensor.

The target in another assay is T2, M4 muscarinic receptor (Homo sapiens, UniProt P08173).
T2 construct: expressed in transfected cells; host or cells: CHO cells (M4-CHO, under puromycin, zeocin and blasticidin selection)
T2 sequence (P08173 1-479): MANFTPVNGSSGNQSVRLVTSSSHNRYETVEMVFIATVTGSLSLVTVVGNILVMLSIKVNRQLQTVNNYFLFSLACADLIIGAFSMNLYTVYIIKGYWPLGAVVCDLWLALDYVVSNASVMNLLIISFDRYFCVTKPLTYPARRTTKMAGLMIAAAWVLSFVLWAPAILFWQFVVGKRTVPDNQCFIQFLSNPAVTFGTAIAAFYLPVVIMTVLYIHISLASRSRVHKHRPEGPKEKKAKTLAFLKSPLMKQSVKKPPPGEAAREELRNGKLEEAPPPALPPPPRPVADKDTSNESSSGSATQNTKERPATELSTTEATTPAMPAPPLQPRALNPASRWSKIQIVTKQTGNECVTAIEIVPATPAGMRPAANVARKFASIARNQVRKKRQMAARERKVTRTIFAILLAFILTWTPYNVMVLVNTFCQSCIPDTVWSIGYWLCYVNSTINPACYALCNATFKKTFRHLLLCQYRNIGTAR
Kind of assay: Functional mobilization of intracellular calcium (FLIPR, Fluo-3), M4-CHO cells. Format: cell-based. As to conditions: compound nos. 1-454; for Emax: 100% efficacy is the maximum response obtained with the Carbachol control, read-out: M4 Efficacy; for M4 Activity: M4-CHO cells, calcium mobilization. An outline of the steps:
as §1

Two compounds from patent US7858635B2 (priority 2005, dated 2010) can be followed below.

Where only a bound is given, the exact number is not on record here.

With `CCOC(=O)N1CCC(N2CCC3(CC2)CN(C(=O)OC(C)C)c2ccc(F)cc23)CC1` [compound 145], at M1 muscarinic receptor, the Emax is over 85% and the “M1 Activity” value is recorded as “+++ (activity was measured to be less than or equal to 0.7 μM)”. Further, at M4 muscarinic receptor, the Emax was over 70% and the “M4 Activity” value was “+ (activity was measured to be greater than or equal to 4.0 μM)”.
On the same counts, the results for `CC(=O)NC1CC2(CCN(CC3CC4C=CC3C4)CC2)c2ccccc21` (centres unmarked) [compound 180] are 65 to 85%, “+++ (activity was measured to be less than or equal to 0.7 μM)”, 55 to 70% and “+++ (activity was measured to be less than or equal to 0.1 μM)”.
